The values that follow are results of earlier work, collected in patent US20090155335A1, “NON-LEACHING NON-FOULING ANTIMICROBIAL COATINGS” (priority 2007, published 2009).

The data set has as its system methicillin resistant and vancomycin intermediate-resistant Staphylococcus aureus. To be noted: Dacron graft soaked in dermaseptin solution, rat.

For dermaseptin, the “efficacy of released dermaseptin against resistant S. aureus” value was “effective”.
